Measured values reported in ChEMBL document CHEMBL1158853, “Laurencia rigida: chemical investigations of its antifouling dichloromethane extract” (J Nat Prod, 1997).
Where a name gives a salt, the structure may show the parent alone. Active and inactive are the calls of the source. No cut-off for these calls is given here.

Key:
Mycotypha microspora [1] = assay: Antifungal activity against Mycotypha microspora at 34 ug by agar diffusion assay; assay type: functional; settings: read-out: IZ
[Chlorella] fusca [2] = Antialgal activity against Chlorella fusca at 34 ug by agar diffusion assay; assay type: functional; settings: Scenedesmus fuscus; read-out: IZ
[3] = test system: Aspergillus pseudoglaucus; assay: Antifungal activity Eurotium repens at 34 ug by agar diffusion assay; assay type: functional; settings: read-out: IZ
Escherichia coli [4] = assay: Antibacterial activity against Escherichia coli at 34 ug by agar diffusion assay; assay type: functional; settings: read-out: IZ
Fusarium oxysporum [5] = assay: Antifungal activity against Fusarium oxysporum at 34 ug by agar diffusion assay; assay type: functional; settings: read-out: IZ
Microbotryum violaceum [6] = assay: Antifungal activity against Ustilago violacea at 34 ug by agar diffusion assay; assay type: functional; settings: read-out: IZ
Priestia megaterium [7] = assay: Antibacterial activity against Bacillus megaterium at 34 ug by agar diffusion assay; assay type: functional; settings: read-out: IZ
Fusarium oxysporum [8] = assay: Antifungal activity against Fusarium oxysporum at 50 ug by agar diffusion assay; settings: read-out: IZ
Mycotypha microspora [9] = assay: Antifungal activity against Mycotypha microspora at 50 ug by agar diffusion assay; settings: read-out: IZ
[10] = test system: Aspergillus pseudoglaucus; assay: Antifungal activity Eurotium repens at 50 ug by agar diffusion assay; settings: read-out: IZ
Mycotypha microspora [11] = assay: Antifungal activity against Mycotypha microspora at 135 ug by agar diffusion assay; assay type: functional; settings: read-out: IZ
[Chlorella] fusca [12] = Antialgal activity against Chlorella fusca at 135 ug by agar diffusion assay; assay type: functional; settings: Scenedesmus fuscus; read-out: IZ
Microbotryum violaceum [13] = assay: Antifungal activity against Ustilago violacea at 135 ug by agar diffusion assay; assay type: functional; settings: read-out: IZ
Escherichia coli [14] = assay: Antibacterial activity against Escherichia coli at 135 ug by agar diffusion assay; assay type: functional; settings: read-out: IZ
Fusarium oxysporum [15] = assay: Antifungal activity against Fusarium oxysporum at 135 ug by agar diffusion assay; assay type: functional; settings: read-out: IZ
[16] = test system: Aspergillus pseudoglaucus; assay: Antifungal activity Eurotium repens at 135 ug by agar diffusion assay; assay type: functional; settings: read-out: IZ
Priestia megaterium [17] = assay: Antibacterial activity against Bacillus megaterium at 135 ug by agar diffusion assay; assay type: functional; settings: read-out: IZ
Amphibalanus amphitrite = assay: Toxicity in Balanus amphitrite nauplii larvae assessed as survival rate; assay type: organism-based; settings: in vivo
Escherichia coli [18] = assay: Antibacterial activity against Escherichia coli at 45 ug by agar diffusion assay; assay type: functional; settings: read-out: IZ
Microbotryum violaceum [19] = assay: Antifungal activity against Ustilago violacea at 45 ug by agar diffusion assay; assay type: functional; settings: read-out: IZ
Fusarium oxysporum [20] = assay: Antifungal activity against Fusarium oxysporum at 45 ug by agar diffusion assay; assay type: functional; settings: read-out: IZ
[Chlorella] fusca [21] = Antialgal activity against Chlorella fusca at 45 ug by agar diffusion assay; assay type: functional; settings: Scenedesmus fuscus; read-out: IZ
Mycotypha microspora [22] = assay: Antifungal activity against Mycotypha microspora at 45 ug by agar diffusion assay; assay type: functional; settings: read-out: IZ
[23] = test system: Aspergillus pseudoglaucus; assay: Antifungal activity Eurotium repens at 45 ug by agar diffusion assay; assay type: functional; settings: read-out: IZ
Priestia megaterium [24] = assay: Antibacterial activity against Bacillus megaterium at 45 ug by agar diffusion assay; assay type: functional; settings: read-out: IZ
Escherichia coli [25] = assay: Antibacterial activity against Escherichia coli at 85 ug by agar diffusion assay; assay type: functional; settings: read-out: IZ
Priestia megaterium [26] = assay: Antibacterial activity against Bacillus megaterium at 85 ug by agar diffusion assay; assay type: functional; settings: read-out: IZ
Priestia megaterium [27] = assay: Antibacterial activity against Bacillus megaterium at 65 ug by agar diffusion assay; assay type: functional; settings: read-out: IZ
Escherichia coli [28] = assay: Antibacterial activity against Escherichia coli at 65 ug by agar diffusion assay; assay type: functional; settings: read-out: IZ
Escherichia coli [29] = assay: Antibacterial activity against Escherichia coli at 50 ug by agar diffusion assay; assay type: functional, organism-based
[Chlorella] fusca [30] = Antialgal activity against Chlorella fusca at 50 ug by agar diffusion assay; assay type: functional, organism-based; settings: Scenedesmus fuscus
Priestia megaterium [31] = assay: Antibacterial activity against Bacillus megaterium at 50 ug by agar diffusion assay; assay type: functional, organism-based
[32] = test system: Aspergillus pseudoglaucus; assay: Antifungal activity Eurotium repens at 25 ug by agar diffusion assay; assay type: functional; settings: read-out: IZ
Fusarium oxysporum [33] = assay: Antifungal activity against Fusarium oxysporum at 25 ug by agar diffusion assay; assay type: functional; settings: read-out: IZ
Microbotryum violaceum [34] = assay: Antifungal activity against Ustilago violacea at 25 ug by agar diffusion assay; assay type: functional; settings: read-out: IZ
[Chlorella] fusca [35] = Antialgal activity against Chlorella fusca at 25 ug by agar diffusion assay; assay type: functional; settings: Scenedesmus fuscus; read-out: IZ
Priestia megaterium [36] = assay: Antibacterial activity against Bacillus megaterium at 25 ug by agar diffusion assay; assay type: functional; settings: read-out: IZ
Escherichia coli [37] = assay: Antibacterial activity against Escherichia coli at 25 ug by agar diffusion assay; assay type: functional; settings: read-out: IZ
Mycotypha microspora [38] = assay: Antifungal activity against Mycotypha microspora at 25 ug by agar diffusion assay; assay type: functional; settings: read-out: IZ
Mycotypha microspora [39] = assay: Antifungal activity against Mycotypha microspora at 40 ug by agar diffusion assay; assay type: functional; settings: read-out: IZ
Escherichia coli [40] = assay: Antibacterial activity against Escherichia coli at 40 ug by agar diffusion assay; assay type: functional; settings: read-out: IZ
[Chlorella] fusca [41] = Antialgal activity against Chlorella fusca at 40 ug by agar diffusion assay; assay type: functional; settings: Scenedesmus fuscus; read-out: IZ
Priestia megaterium [42] = assay: Antibacterial activity against Bacillus megaterium at 40 ug by agar diffusion assay; assay type: functional; settings: read-out: IZ
[43] = test system: Aspergillus pseudoglaucus; assay: Antifungal activity Eurotium repens at 40 ug by agar diffusion assay; assay type: functional; settings: read-out: IZ
Microbotryum violaceum [44] = assay: Antifungal activity against Ustilago violacea at 40 ug by agar diffusion assay; assay type: functional; settings: read-out: IZ
Fusarium oxysporum [45] = assay: Antifungal activity against Fusarium oxysporum at 40 ug by agar diffusion assay; assay type: functional; settings: read-out: IZ
Mycotypha microspora [46] = assay: Antifungal activity against Mycotypha microspora at 33 ug by agar diffusion assay; assay type: functional; settings: read-out: IZ
Fusarium oxysporum [47] = assay: Antifungal activity against Fusarium oxysporum at 33 ug by agar diffusion assay; assay type: functional; settings: read-out: IZ
Priestia megaterium [48] = assay: Antibacterial activity against Bacillus megaterium at 33 ug by agar diffusion assay; assay type: functional; settings: read-out: IZ
Microbotryum violaceum [49] = assay: Antifungal activity against Ustilago violacea at 33 ug by agar diffusion assay; assay type: functional; settings: read-out: IZ
Escherichia coli [50] = assay: Antibacterial activity against Escherichia coli at 33 ug by agar diffusion assay; assay type: functional; settings: read-out: IZ
[51] = test system: Aspergillus pseudoglaucus; assay: Antifungal activity Eurotium repens at 33 ug by agar diffusion assay; assay type: functional; settings: read-out: IZ
[Chlorella] fusca [52] = Antialgal activity against Chlorella fusca at 33 ug by agar diffusion assay; assay type: functional; settings: Scenedesmus fuscus; read-out: IZ
Fusarium oxysporum [53] = assay: Antifungal activity against Fusarium oxysporum at 60 ug by agar diffusion assay; assay type: functional; settings: read-out: IZ
Microbotryum violaceum [54] = assay: Antifungal activity against Ustilago violacea at 60 ug by agar diffusion assay; assay type: functional, organism-based
Mycotypha microspora [55] = assay: Antifungal activity against Mycotypha microspora at 60 ug by agar diffusion assay; assay type: functional; settings: read-out: IZ
[56] = test system: Aspergillus pseudoglaucus; assay: Antifungal activity Eurotium repens at 60 ug by agar diffusion assay; assay type: functional; settings: read-out: IZ

In the case of `CC(=O)OC(C=C(C)C)C/C(C)=C1/CC=C(C)CC1` (stereo unspecified), the zone of inhibition at 34 µg/disc (Mycotypha microspora [1]) is reported as 0 mm, the zone of inhibition at 34 µg/disc ([Chlorella] fusca [2]) is reported as 3 mm and the zone of inhibition at 34 µg/disc [3] is reported as 0 mm. It also gave a zone of inhibition at 34 µg/disc (Escherichia coli [4]) of 0 mm, a zone of inhibition at 34 µg/disc (Fusarium oxysporum [5]) of 0 mm and a zone of inhibition at 34 µg/disc (Microbotryum violaceum [6]) of 0 mm. The zone of inhibition at 34 µg/disc (Priestia megaterium [7]) was 0 mm.
`Clc1ccc(COC(Cn2ccnc2)c2ccc(Cl)cc2Cl)c(Cl)c1` (stereo unspecified) [MICONAZOLE NITRATE] showed a zone of inhibition at 50 µg/disc (Fusarium oxysporum [8]) of 1 mm, a zone of inhibition at 50 µg/disc (Mycotypha microspora [9]) of 7 mm and a zone of inhibition at 50 µg/disc [10] of 18 mm.
With `C=C1C[C@H](O)[C@H](Br)C(C)(C)[C@@]12CCC(C)=C(Cl)C2` [ELATOL] the zone of inhibition at 135 µg/disc (Mycotypha microspora [11]) was 25 mm, the zone of inhibition at 135 µg/disc ([Chlorella] fusca [12]) was 0 mm and the zone of inhibition at 135 µg/disc (Microbotryum violaceum [13]) was 3 mm. For the same compound, the zone of inhibition at 135 µg/disc (Escherichia coli [14]) was 0 mm, the zone of inhibition at 135 µg/disc (Fusarium oxysporum [15]) was 7 mm and the zone of inhibition at 135 µg/disc [16] was 25 mm. The zone of inhibition at 135 µg/disc (Priestia megaterium [17]) was 2 mm and the Activity (Amphibalanus amphitrite) was “Toxic”.
For `C=C1C[C@H](O)[C@H](Br)C(C)(C)[C@]12C=C[C@@](C)(O)CC2` [RIGIDOL], the zone of inhibition at 45 µg/disc (Escherichia coli [18]) was 0 mm, the zone of inhibition at 45 µg/disc (Microbotryum violaceum [19]) was 5 mm and the zone of inhibition at 45 µg/disc (Fusarium oxysporum [20]) was 0 mm. The zone of inhibition at 45 µg/disc ([Chlorella] fusca [21]) was 0 mm, the zone of inhibition at 45 µg/disc (Mycotypha microspora [22]) was 4 mm and the zone of inhibition at 45 µg/disc [23] was 0 mm. The zone of inhibition at 45 µg/disc (Priestia megaterium [24]) was 0 mm.
`CC1(C)S[C@@H]2[C@H](NC(=O)Cc3ccccc3)C(=O)N2[C@H]1C(=O)O` [PENICILLIN G POTASSIUM] showed a zone of inhibition at 85 µg/disc (Escherichia coli [25]) of 0 mm and a zone of inhibition at 85 µg/disc (Priestia megaterium [26]) of 20 mm.
For `CN[C@@H]1[C@H](O[C@H]2[C@H](O[C@H]3[C@H](O)[C@@H](O)[C@H](N=C(N)N)[C@@H](O)[C@@H]3N=C(N)N)O[C@@H](C)[C@]2(O)C=O)O[C@@H](CO)[C@H](O)[C@H]1O` [STREPTOMYCIN SULFATE], the zone of inhibition at 65 µg/disc (Priestia megaterium [27]) was 5 mm and the zone of inhibition at 65 µg/disc (Escherichia coli [28]) was 3 mm.
For `CC1=CC[C@@]2(CC1)C(C)=CC[C@@H](Br)C2(C)C`, the Activity (Escherichia coli [29]) was “inactive”, the Activity ([Chlorella] fusca [30]) was “inactive” and the Activity (Priestia megaterium [31]) was “inactive”.
Compound `C=C1C[C@H](O)[C@H](Br)C(C)(C)[C@]12CC=C(C)CC2` [DESCHLOROELATOL] has a zone of inhibition at 25 µg/disc [32] of 18 mm, a zone of inhibition at 25 µg/disc (Fusarium oxysporum [33]) of 0 mm and a zone of inhibition at 25 µg/disc (Microbotryum violaceum [34]) of 0 mm. It also gave a zone of inhibition at 25 µg/disc ([Chlorella] fusca [35]) of 2 mm, a zone of inhibition at 25 µg/disc (Priestia megaterium [36]) of 1 mm and a zone of inhibition at 25 µg/disc (Escherichia coli [37]) of 0 mm. The zone of inhibition at 25 µg/disc (Mycotypha microspora [38]) was 20 mm and the Activity (Amphibalanus amphitrite) was “Toxic”.
For `C[C@@H]1CCC23[C@H]1CC[C@@]2(C)C[C@H](C)[C@]3(C)O` (stereo partly specified), the zone of inhibition at 40 µg/disc (Mycotypha microspora [39]) was 0 mm, the zone of inhibition at 40 µg/disc (Escherichia coli [40]) was 0 mm and the zone of inhibition at 40 µg/disc ([Chlorella] fusca [41]) was 2 mm. It also gave a zone of inhibition at 40 µg/disc (Priestia megaterium [42]) of 0 mm, a zone of inhibition at 40 µg/disc [43] of 0 mm and a zone of inhibition at 40 µg/disc (Microbotryum violaceum [44]) of 0 mm. The zone of inhibition at 40 µg/disc (Fusarium oxysporum [45]) was 0 mm.
`CC1=CC[C@]2(CC1)C(C)=C[C@@H](O)[C@H](Br)C2(C)C` was tested, and the zone of inhibition at 33 µg/disc (Mycotypha microspora [46]) was 3 mm, the zone of inhibition at 33 µg/disc (Fusarium oxysporum [47]) was 0 mm and the zone of inhibition at 33 µg/disc (Priestia megaterium [48]) was 0 mm. For the same compound, the zone of inhibition at 33 µg/disc (Microbotryum violaceum [49]) was 0 mm, the zone of inhibition at 33 µg/disc (Escherichia coli [50]) was 0 mm and the zone of inhibition at 33 µg/disc [51] was 0 mm. It also gave a zone of inhibition at 33 µg/disc ([Chlorella] fusca [52]) of 3 mm.
`C[C@@H]1C[C@@H]([C@H](O)CC2CC(=O)NC(=O)C2)C(=O)[C@@H](C)C1` [CYCLOHEXIMIDE] was tested, and the zone of inhibition at 60 µg/disc (Fusarium oxysporum [53]) was 3 mm, the Activity (Microbotryum violaceum [54]) was “Active” and the zone of inhibition at 60 µg/disc (Mycotypha microspora [55]) was 4 mm. It also gave a zone of inhibition at 60 µg/disc [56] of 5 mm.
With `C=C1CC[C@H](Br)C(C)(C)[C@]12CC=C(C)CC2` the Activity (Escherichia coli [29]) was “inactive”, the Activity ([Chlorella] fusca [30]) was “inactive” and the Activity (Priestia megaterium [31]) was “inactive”.
